Source: paper PMC12040169 (PLOS Biology, 2025)

Experiment: in vitro
Details: human, hela cells, % viability

Row | Structure (SMILES) | viability at 28.5 h, 10 µM | viability at 28.5 h, 10 µM (bulk resorufin, single well)
1 | Nn1c(SCC(=O)Nc2ccc3c(c2)OCO3)nnc1-c1ccccn1 [CBK267550] | 101% | 
2 | Nn1c(SCC(=O)Nc2ccc3c(c2)OCCO3)nnc1-c1ccccn1 [CBK267551] | 87.4% | 
3 | O=C(CSc1nnc(-c2ccco2)n1Cc1ccco1)c1ccc(-c2ccccc2)cc1 [CBK267555] | 91.1% | 
4 | Fc1ccccc1CSc1nnc(-c2cnccn2)n1Cc1ccco1 [CBK267556] | 96.4% | 
5 | NC(=O)CC1Nc2cccc3cccc(c23)NC1=O (stereo not drawn) [CBK267560] | 75% | 
6 | COC(=O)c1c(NC(=O)CC2Nc3cccc4cccc(c34)NC2=O)sc(C)c1C (stereo not drawn) [CBK267562] | 68.3% | 
7 | CCc1cc(C(=O)OC)c(NC(=O)CC2Nc3cccc4cccc(c34)NC2=O)s1 (stereo not drawn) [CBK267563] | 59.8% | 
8 | COc1cc(OC)c(S(=O)(=O)N2CCOCC2)cc1S(=O)(=O)N1CCOCC1 [CBK267564] | 98.1% | 
9 | Cn1c(=O)n(C)c2cc(S(=O)(=O)ON3C(=O)c4cccc5cc([N+](=O)[O-])cc(c45)C3=O)ccc21 [CBK267566] | 91.6% | 
10 | Cn1c(=O)oc2cc(S(=O)(=O)NCCC(=O)O)ccc21 [CBK267567] | 89.3% | 
11 | Cn1c(=O)oc2cc(S(=O)(=O)NCc3ccccc3)ccc21 [CBK267568] | 90.8% | 
12 | Cc1ccc2cc(S(=O)(=O)NCCC(=O)O)ccc2c1 [CBK267569] | 96.5% | 
13 | CC(=O)Nc1ccc(S(=O)(=O)N(C)CC(=O)O)cc1 [CBK267570] | 97.8% | 
14 | COc1ccc(S(=O)(=O)N2CCC(C(=O)O)(c3ccccc3)CC2)cc1 [CBK267572] | 94.3% | 
15 | CC1(C)CC(=O)c2c(O)cc(OCC(=O)c3ccc(Cl)c(Cl)c3)cc2O1 [CBK267573] | 89.1% | 
16 | O=C(CSc1nnc(SCc2cccc3ccccc23)s1)Nc1ccccc1C(F)(F)F [CBK267575] | 103% | 
17 | NS(=O)(=O)c1ccc(NC(=O)CSc2nc3sc4c(c3c(=O)n2-c2ccc(Cl)cc2)CCCC4)cc1 [CBK267577] | 91.9% | 
18 | Cc1ccc(N(Cc2ccco2)C(=O)c2cccc(S(=O)(=O)N(C)C)c2)cc1 [CBK267578] | 91.6% | 
19 | CN(C)S(=O)(=O)c1cccc(C(=O)N(Cc2ccc(F)cc2)Cc2ccco2)c1 [CBK267579] | 88.8% | 
20 | CN(C)S(=O)(=O)c1cccc(-c2cn3cccnc3n2)c1 [CBK267580] | 71.4% | 
21 | COc1cc(C2c3c(oc4ccc(Cl)cc4c3=O)C(=O)N2CC2CCCO2)ccc1OCc1ccccc1 (stereo not drawn) [CBK267581] | 89.5% | 

Row | Structure (SMILES) | viability at 28.5 h, 10 µM | viability at 28.5 h, 10 µM (bulk resorufin, single well)
22 | CC(C)OC(=O)CSc1nnc(-c2cnccn2)n1Cc1ccco1 [CBK267586] | 117% | 
23 | C(=C\c1ccccc1)/CSc1nnc(-c2cnccn2)n1Cc1ccco1 [CBK267587] | 119% | 
24 | O=C(CSc1nnc(Cc2cccs2)n1-c1ccccc1)Nc1ccc(F)c(Cl)c1 [CBK267589] | 92.3% | 
25 | Cc1ccc(-c2csc3ncnc(SCc4nc5ccccc5[nH]4)c23)cc1 [CBK267590] | 83.5% | 
26 | O=C(CSc1nnc(-c2ccc(F)cc2)n1-c1ccccc1)Nc1cccc2ccccc12 [CBK267592] | 89.8% | 
27 | COc1ccc(NC(=S)NC(=O)CN2C(=O)c3ccccc3C2=O)c([N+](=O)[O-])c1 [CBK267594] | 114% | 
28 | Cc1cc(NS(=O)(=O)c2ccc(NC(=O)c3cc4ccccc4o3)cc2)no1 [CBK267597] | 88% | 
29 | COc1ccc(S(=O)(=O)NCCc2ccc(S(N)(=O)=O)cc2)cc1[N+](=O)[O-] [CBK267598] | 94.1% | 
30 | O=C1NC(=O)c2cc(S(=O)(=O)NCCCO)cc3cccc1c23 [CBK267602] | 110% | 
31 | COc1ccc(OC)c(NS(=O)(=O)c2ccc(C(=O)O)cc2)c1 [CBK267603] | 106% | 
32 | CS(=O)(=O)N1CCN(c2ccccc2NC(=O)c2cccnc2)CC1 [CBK267604] | 119% | 
33 | CS(=O)(=O)N1CCN(c2ccccc2NC(=O)CSc2ccc(Cl)cc2)CC1 [CBK267607] | 83.7% | 
34 | O=C(NC(=S)Nc1cccc2ncccc12)c1ccc(N2CCOCC2)c([N+](=O)[O-])c1 [CBK267608] | 87.8% | 
35 | COc1ccc2oc(-c3ccc(NC(=O)c4cccc5ccccc45)cc3)nc2c1 [CBK267610] | 110% | 
36 | Cc1ccc2[nH]c(/C(C#N)=C\c3cn(CC(=O)Nc4ccccc4)c4ccccc34)nc2c1 [CBK267612] | 105% | 
37 | C=CCOc1ccc2ccccc2c1CNc1nn[nH]n1 [CBK267619] | 92.8% | 
38 | COc1cc(CNCc2cccs2)ccc1OCC(N)=O [CBK267620C] | 95.7% | 
39 | COc1ccc(C(=O)Nc2ccc(S(=O)(=O)N3CCN(C)CC3)cc2)cc1 [CBK267622] | 92.8% | 
40 | O=C(Nc1cccc(Cl)c1)Nc1ccccc1NC(=O)Nc1cccc(Cl)c1 [CBK267624] | 92.4% | 
41 | O=C(CCSc1nc(-c2ccco2)cc(C(F)(F)F)n1)N1CCN(c2ccccn2)CC1 [CBK267626] | 99% | 
42 | O=C(CCSc1nc(-c2ccco2)cc(C(F)(F)F)n1)Nc1ccc2c(c1)OCO2 [CBK267627] | 104% | 

Row | Structure (SMILES) | viability at 28.5 h, 10 µM | viability at 28.5 h, 10 µM (bulk resorufin, single well)
43 | COc1ccc(-c2cc(C(F)(F)F)nc(SCC(=O)N(C)c3ccccc3)n2)cc1OC [CBK267628] | 112% | 
44 | Cc1ccc(O)c(NC(=O)c2nc3ncccn3n2)c1 [CBK267629] | 99.6% | 
45 | CCOC(=O)c1c(NC(=O)c2nc3ncccn3n2)sc(C)c1C [CBK267630] | 114% | 
46 | Cc1nn(Cc2cccc(Oc3ccccc3)c2)c(C)c1NC(=O)c1nc2ncccn2n1 [CBK267632] | 89% | 
47 | Cc1ccccc1Cn1nc(C)c(NC(=O)c2nc3n(n2)C(C(F)F)CC(C)N3)c1C (stereo not drawn) [CBK267633] | 92.6% | 
48 | Cc1nn(Cc2c(F)cccc2Cl)c(C)c1NC(=O)c1cnn2c(C(F)F)cc(-c3ccccc3)nc12 [CBK267634] | 95.3% | 
49 | O=C(O)c1cc2ncc(CCO)cn2n1 [CBK267635] | 99.6% | 
50 | O=C(NCC1CCNCC1)c1ccncc1 [CBK267637C] | 95% | 
51 | O=C(NCCCO)c1cc2ccccc2[nH]1 [CBK267638] | 87.9% | 
52 | NCCCNC(=O)c1cc2ccccc2[nH]1 [CBK267639] | 88.4% | 
53 | O=C(Cn1c(=O)oc2ccccc21)Nc1cccc(C(=O)O)c1 [CBK267641] | 97.4% | 
54 | O=C(CCn1cnc2ccccc2c1=O)Nc1ccc(S(=O)(=O)N2CCCC2)cc1 [CBK267642] | 93% | 
55 | CC1CCCC(C)N1S(=O)(=O)c1ccc(NC(=O)CCn2cnc3ccccc3c2=O)cc1 (stereo not drawn) [CBK267643] | 95.5% | 
56 | Cc1ccc([N+](=O)[O-])cc1NC(=O)CCn1cnc2ccccc2c1=O [CBK267644] | 106% | 
57 | O=C(CCn1cnc2ccccc2c1=O)Nc1ccc(S(=O)(=O)N2CCOCC2)cc1 [CBK267645] | 98.9% | 
58 | CCn1c(COc2ccc(C(=O)O)cc2)nc2ccccc21 [CBK267647] | 91.7% | 
59 | NC(=O)Cn1cc(C(=O)COc2ccccc2)c2ccccc21 [CBK267650] |  | 95.2%
60 | O=C(Cn1cc(C(=O)COc2ccccc2)c2ccccc21)Nc1ccccc1 [CBK267653] | 110% | 
61 | COC(=O)CN(c1ccc(Cl)cc1Cl)S(C)(=O)=O [CBK267654] | 105% | 
62 | COC(=O)c1ccc(NC(=O)CN(c2ccc(F)c(Cl)c2)S(C)(=O)=O)cc1 [CBK267657] | 88.3% | 
63 | O=C(COc1ccccc1)c1cn(CC(=O)N2CCc3ccccc32)c2ccccc12 [CBK267659] | 93.5% | 

Row | Structure (SMILES) | viability at 28.5 h, 10 µM | viability at 28.5 h, 10 µM (bulk resorufin, single well)
64 | Cc1c(C(=O)Nc2nc(-c3ccc(S(=O)(=O)N4CCOCC4)cc3)cs2)oc2ccc(Cl)cc12 [CBK267663] | 93.7% | 
65 | Cc1ccccc1-c1nc(S(=O)(=O)c2ccc(Cl)cc2)c(NCC2CCCO2)o1 (stereo not drawn) [CBK267668] | 113% | 
66 | O=S(=O)(c1ccccc1)c1nc(-c2ccco2)oc1NCCCn1ccnc1 [CBK267670] | 87.1% | 
67 | O=S(=O)(c1ccc(F)cc1)c1nc(-c2cccs2)oc1N1CCN(Cc2ccccc2)CC1 [CBK267672] | 89.7% | 
68 | COc1ccc(C2CC(c3nc4ccccc4[nH]3)=NN2C(=O)CCN2CCCCC2)cc1 (stereo not drawn) [CBK267673] | 99.8% | 
69 | Cc1nonc1OCCN1CCN(c2cc3c(cc2[N+](=O)[O-])n(C)c(=O)n3C)CC1 [CBK267676] | 104% | 
70 | CC(=O)Nc1ccccc1NC(=O)CCCN1C(=O)CCC1=O [CBK267681] | 92.8% | 
71 | CN(CC(=O)O/N=C(\N)c1cccnc1)S(=O)(=O)c1ccccc1 [CBK267684] | 94.3% | 
72 | NC(=O)CSc1nnc(COc2cccc(Cl)c2)n1-c1ccccc1 [CBK267685] | 88.9% | 
73 | O=C(Cn1c(=O)oc2ccccc21)Nc1ccc(S(=O)(=O)Nc2nccs2)cc1 [CBK267686] | 80.2% | 
74 | Nc1nnc(SCCN2C(=O)c3ccccc3S2(=O)=O)s1 [CBK267688] | 88.6% | 
75 | CC(=O)Nc1ccc(S(=O)(=O)NC2(C(F)(F)F)NC(=O)N(c3ccc(Cl)cc3)C2=O)cc1 (stereo not drawn) [CBK267689] | 95.7% | 
76 | Cc1ccc(-c2cnc3ccccc3n2)cc1NC(=O)c1ccccc1S(=O)(=O)c1ccc([N+](=O)[O-])cc1 [CBK267690] | 110% | 
77 | O=C(CSc1nnc(-c2ccccc2Cl)[nH]1)c1ccc(O)c(O)c1 [CBK267693] | 78.3% | 
78 | c1ccc2[nH]c(CCCCCc3nc4ccccc4[nH]3)nc2c1 [CBK267694] | 107% | 
79 | COc1ccc(CNC(=O)C2CC=CCC2C(=O)O)cc1OC (stereo not drawn) [CBK267695] | 86.6% | 
80 | CN(C)S(=O)(=O)NNC(=O)c1c[nH]c2ccccc12 [CBK267698] | 102% | 
81 | CC(N)C(=O)Nc1ccccc1-c1ccccc1 (stereo not drawn) [CBK267700] | 98.7% | 
82 | CC(C)(O)C#Cc1ccccc1C(=O)NC(Cc1c[nH]c2ccccc12)C(=O)O (stereo not drawn) [CBK267701] | 80.4% | 
83 | O=C(NC(Cc1ccccc1)C(=O)O)c1ccc(C#CC2(O)CCCCC2)cc1 (stereo not drawn) [CBK267702] | 93% | 
84 | CC(C)(O)C#Cc1ccc(C(=O)NC(Cc2c[nH]c3ccccc23)C(=O)O)cc1 (stereo not drawn) [CBK267703] | 96.5% | 
